Entries after “also recorded” stand apart in the source; their conditions may differ.
Tested on: female 129S6/SvEv mice
Test: Forced swim test (FST), immobility time, after stress
[1] = 0.025 mg/kg, 1 week prophylactic drug
[2] = 0.025 mg/kg, 1 week prophylactic drug, learned helplessness stress
[3] = 0.025 mg/kg, 3 day prophylactic drug
[4] = 0.075 mg/kg, 1 week prophylactic drug
[5] = 0.1 mg/kg, 1 week prophylactic drug
[6] = 0.3 mg/kg, 1 week prophylactic drug
[7] = 2.5 mg/kg, 1 week prophylactic drug
[8] = 10 mg/kg, 1 week prophylactic drug
[9] = Forced Swim Test Day 1, Dunnett test Sal vs. drug (0.025), 1 week prophylactic drug
[10] = Forced Swim Test Day 1, Dunnett test Sal vs. drug (0.075), 1 week prophylactic drug
[11] = Forced Swim Test Day 1, Dunnett test Sal vs. drug (0.1), 1 week prophylactic drug

In the case of `N[C@@]1(c2ccccc2Cl)CCC[C@@H](O)C1=O` [(2R,6R)-HNK, (2R,6R)-hydroxynorketamine], the “* (significance), Sal vs. drug, Dunnett test: Immobility Time (min 1-6), Forced Swim Test Day 2” value [1] is reported as “*** (*** p<0.0001)”, the “* (significance), Sal vs. drug, Dunnett test: Immobility Time (min 4), Forced Swim Test Day 2” value [1] is reported as “* (* p<0.05)” and the “* (significance), Sal vs. drug, Dunnett test: Immobility Time (min 5), Forced Swim Test Day 2” value [1] is reported as “* (* p<0.05)”. For the same compound, the “* (significance), Sal vs. drug, Dunnett test: Immobility Time Average (min 3-6), Forced Swim Test Day 2” value [1] was “* (* p<0.05)”, the “p, Sal vs. drug, Dunnett test: Immobility Time (min 1), Forced Swim Test Day 2” value [1] was 0.0833 and the “p, Sal vs. drug, Dunnett test: Immobility Time (min 1-6), Forced Swim Test Day 2” value [1] was 0.0001. The “p, Sal vs. drug, Dunnett test: Immobility Time (min 2), Forced Swim Test Day 2” value [1] was 0.5867, the “p, Sal vs. drug, Dunnett test: Immobility Time (min 4), Forced Swim Test Day 2” value [1] was 0.0383 and the “p, Sal vs. drug, Dunnett test: Immobility Time (min 5), Forced Swim Test Day 2” value [1] was 0.0346. For the same compound, the “p, Sal vs. drug, Dunnett test: Immobility Time (min 6), Forced Swim Test Day 2” value [1] was 0.2356, the “p, Sal vs. drug, Dunnett test: Immobility Time Average (min 3-6), Forced Swim Test Day 2” value [1] was 0.0229 and the “* (significance), Sal vs. drug, Fisher's PLSD: Immobility Time Average (min 3-6), Forced Swim Test Day 2” value [2] was “*** (*** p<0.0001)”. For the same compound, the “P, Sal vs. drug, Fisher's PLSD: Immobility Time Average (min 3-6), Forced Swim Test Day 2” value [2] was under 0.0001, the “p, Sal vs. drug, t-test: Immobility Time Average (min 3-6), Forced Swim Test Day 2” value (0.025 mg/kg, 24 hour prophylactic drug) was 0.1367 and the “Immobility on FST Day 2 vs saline” value (0.025 mg/kg, 24 hours before CFC, female mice) was “not prophylactically effective when administered 24 h before a stressor; also recorded: did not alter immobility in the FST”. The “* (significance), Sal vs. drug, Fisher's PLSD: Immobility Time (min 1-6), Forced Swim Test Day 2” value [3] was “*** (*** p<0.0001)”, the “* (significance), Sal vs. drug, Fisher's PLSD: Immobility Time Average (min 3-6), Forced Swim Test Day 2” value [3] was “** (** p<0.01)” and the “p, Sal vs. drug, Fisher's PLSD: Immobility Time (min 1-6), Forced Swim Test Day 2” value [3] was under 0.0001. The “p, Sal vs. drug, Fisher's PLSD: Immobility Time Average (min 3-6), Forced Swim Test Day 2” value [3] was 0.0046, the “p, Sal vs. drug, Dunnett test: Immobility Time (min 1), Forced Swim Test Day 2” value [4] was 0.4238 and the “p, Sal vs. drug, Dunnett test: Immobility Time (min 1-6), Forced Swim Test Day 2” value [4] was 0.5537. For the same compound, the “p, Sal vs. drug, Dunnett test: Immobility Time (min 2), Forced Swim Test Day 2” value [4] was 0.9312, the “p, Sal vs. drug, Dunnett test: Immobility Time (min 4), Forced Swim Test Day 2” value [4] was 0.9993 and the “p, Sal vs. drug, Dunnett test: Immobility Time (min 5), Forced Swim Test Day 2” value [4] was over 0.9999. For the same compound, the “p, Sal vs. drug, Dunnett test: Immobility Time (min 6), Forced Swim Test Day 2” value [4] was 0.9760, the “p, Sal vs. drug, Dunnett test: Immobility Time Average (min 3-6), Forced Swim Test Day 2” value [4] was 0.8615 and the “p, Sal vs. drug, Dunnett test: Immobility Time (min 1), Forced Swim Test Day 2” value [5] was 0.9995. For the same compound, the “p, Sal vs. drug, Dunnett test: Immobility Time (min 1-6), Forced Swim Test Day 2” value [5] was 0.9871, the “p, Sal vs. drug, Dunnett test: Immobility Time (min 2), Forced Swim Test Day 2” value [5] was 0.2508 and the “p, Sal vs. drug, Dunnett test: Immobility Time (min 4), Forced Swim Test Day 2” value [5] was 0.9994. The “p, Sal vs. drug, Dunnett test: Immobility Time (min 5), Forced Swim Test Day 2” value [5] was 0.8037, the “p, Sal vs. drug, Dunnett test: Immobility Time (min 6), Forced Swim Test Day 2” value [5] was 0.8172 and the “p, Sal vs. drug, Dunnett test: Immobility Time Average (min 3-6), Forced Swim Test Day 2” value [5] was 0.9994. For the same compound, the “p, Sal vs. drug, Dunnett test: Immobility Time (min 1), Forced Swim Test Day 2” value [6] was 0.9998, the “p, Sal vs. drug, Dunnett test: Immobility Time (min 1-6), Forced Swim Test Day 2” value [6] was 0.9996 and the “p, Sal vs. drug, Dunnett test: Immobility Time (min 2), Forced Swim Test Day 2” value [6] was 0.9999. For the same compound, the “p, Sal vs. drug, Dunnett test: Immobility Time (min 4), Forced Swim Test Day 2” value [6] was 0.9883, the “p, Sal vs. drug, Dunnett test: Immobility Time (min 5), Forced Swim Test Day 2” value [6] was 0.9991 and the “p, Sal vs. drug, Dunnett test: Immobility Time (min 6), Forced Swim Test Day 2” value [6] was 0.9991. For the same compound, the “p, Sal vs. drug, Dunnett test: Immobility Time Average (min 3-6), Forced Swim Test Day 2” value [6] was 0.9994, the “p, Sal vs. drug, Dunnett test: Immobility Time (min 1), Forced Swim Test Day 2” value [7] was 0.4807 and the “p, Sal vs. drug, Dunnett test: Immobility Time (min 1-6), Forced Swim Test Day 2” value [7] was 0.6589. For the same compound, the “p, Sal vs. drug, Dunnett test: Immobility Time (min 2), Forced Swim Test Day 2” value [7] was 0.9193, the “p, Sal vs. drug, Dunnett test: Immobility Time (min 4), Forced Swim Test Day 2” value [7] was 0.9991 and the “p, Sal vs. drug, Dunnett test: Immobility Time (min 5), Forced Swim Test Day 2” value [7] was over 0.9999. The “p, Sal vs. drug, Dunnett test: Immobility Time (min 6), Forced Swim Test Day 2” value [7] was 0.9995, the “p, Sal vs. drug, Dunnett test: Immobility Time Average (min 3-6), Forced Swim Test Day 2” value [7] was 0.9507 and the “p, Sal vs. drug, Dunnett test: Immobility Time (min 1), Forced Swim Test Day 2” value [8] was 0.9997. For the same compound, the “p, Sal vs. drug, Dunnett test: Immobility Time (min 1-6), Forced Swim Test Day 2” value [8] was 0.9950, the “p, Sal vs. drug, Dunnett test: Immobility Time (min 2), Forced Swim Test Day 2” value [8] was 0.9993 and the “p, Sal vs. drug, Dunnett test: Immobility Time (min 4), Forced Swim Test Day 2” value [8] was 0.9955. For the same compound, the “p, Sal vs. drug, Dunnett test: Immobility Time (min 5), Forced Swim Test Day 2” value [8] was 0.9991, the “p, Sal vs. drug, Dunnett test: Immobility Time (min 6), Forced Swim Test Day 2” value [8] was 0.9999 and the “p, Sal vs. drug, Dunnett test: Immobility Time Average (min 3-6), Forced Swim Test Day 2” value [8] was 0.9997. The “* (significance), Immobility Time (min 1-6)” value [9] was “** (** p<0.01)”, the “p, Immobility Time (min 1)” value [9] was 0.9996 and the “p, Immobility Time (min 1-6)” value [9] was 0.0090. For the same compound, the “p, Immobility Time (min 3)” value [9] was 0.9637, the “p, Immobility Time (min 4)” value [9] was 0.8106 and the “p, Immobility Time (min 5)” value [9] was 0.8892. For the same compound, the “p, Immobility Time (min 6)” value [9] was 0.6406, the “p, Immobility Time Average (min 3-6)” value [9] was 0.7004 and the “* (significance), Immobility Time (min 1)” value [10] was “** (** p<0.01)”. The “p, Immobility Time (min 1)” value [10] was 0.0017, the “p, Immobility Time (min 1-6)” value [10] was 0.2188 and the “p, Immobility Time (min 3)” value [10] was 0.9250. The “p, Immobility Time (min 4)” value [10] was 0.9750, the “p, Immobility Time (min 5)” value [10] was 0.8877 and the “p, Immobility Time (min 6)” value [10] was 0.9994. The “p, Immobility Time Average (min 3-6)” value [10] was 0.9526, the “p, Immobility Time (min 1)” value [11] was 0.9996 and the “p, Immobility Time (min 1-6)” value [11] was 0.0673. For the same compound, the “p, Immobility Time (min 3)” value [11] was 0.4888, the “p, Immobility Time (min 4)” value [11] was 0.3257 and the “p, Immobility Time (min 5)” value [11] was 0.2856. The “p, Immobility Time (min 6)” value [11] was 0.9218.
